# Structures can show the parent of a compound that is named as a salt. Where two headings read alike, the source gives them in different places.
# Experiments:
# Assay type in all cases: cell-based
# CPOX = experiment: RNA-seq of CPOX expression in compound-treated primary human hepatocytes
# Method: (§1) Human hepatocytes were obtained from two donors from Massachusetts General Hospital, namely MGH54 and MGH63, and one donor from Lonza, namely HUM4111B. Cryopreserved hepatocytes were cultured in plating media for 16 hours, transferred to maintenance media for 4 hours. Cultured on serum-free media for 2 hours, then a compound was added. The hepatocytes were maintained on the serum-free media for 16 hours prior to gene expression analysis. Primary human hepatocytes were stored in the vapor phase of a liquid nitrogen freezer (about −130° C.).
# (§2) Human hepatocytes cultured as described above were plated in 24-well format, adding 375,000 cells per well in a volume of 500 ul plating medium. Four hours before treatment, cells were washed with PBS and the medium was changed to either: fresh maintenance medium (complete) or modified maintenance medium.
# (§3) Compound stocks were prepared at 1000× final concentration and added in a 2-step dilution to the medium to reduce risk of a compound precipitating out of solution when added to the cells, and to ensure reasonable pipetting volumes. One at a time, each compound was first diluted 10-fold in warm (about 37° C.) modified maintenance medium (initial dilution=ID), mixed by vortexing, and the ID was diluted 100-fold into the cell culture (e.g. 5.1 ul into 1 well of a 24-well plate containing 0.5 mL medium). The plate was mixed by carefully swirling and after all wells were treated and returned to the incubator overnight. If desired, separate plates/wells were treated with vehicle-only controls and/or positive controls. If using multi-well plates, controls were included on each plate. After about 18 hours, cells were harvested for further analysis, e.g., ChIP-seq, RNA-seq, ATAC-seq, etc.
# (§4) This protocol is a modified version of the following protocols: MagMAX mirVana Total RNA Isolation Kit User Guide (Applied Biosystems #MAN0011131 Rev B.0), NEBNext Poly(A) mRNA Magnetic Isolation Module (E7490), and NEBNext Ultra Directional RNA Library Prep Kit for Illumina (E7420) (New England Biosystems #E74901).
# (§5) The MagMAX mirVana kit instructions (the section titled “Isolate RNA from cells” on pages 14-17) were used for isolation of total RNA from cells in culture. Two hundred μl of Lysis Binding Mix was used per well of the multiwell plate containing adherent cells (usually a 24-well plate).
# (§6) For mRNA isolation and library prep, the NEBNext Poly(A) mRNA Magnetic Isolation Module and Directional Prep kit was used. RNA isolated from cells above was quantified, and prepared in […] of each sample in 50 μl of nuclease-free water. This protocol may be run in microfuge tubes or in a 96-well plate.
# (§7) Standard QC were applied (read integrity, mapping statistics, library complexity, fragment bias) to remove unsatisfactory samples. […] Log 2 fold change and significance values were computed using PME count data (with replicates explicitly modeled versus pan-experiment controls), median ratio normalized, using maximum likelihood estimation rather than maximum a posteriori, and disabling the use of Cook's distance cutoff when determining acceptable adjusted p-values. […] RNA-seq signals were also normalized by read depth and visualized using the UCSC browser.
# (§8) To identify small molecules that modulate target gene expression, primary human hepatocytes were prepared as a monoculture, and at least one small molecule compound was applied to the cells.
# (§9) RNA-seq was performed to determine the effects of the compounds on the expression of the target genes in hepatocytes. Fold change was calculated by dividing the level of expression in the cell system that had been perturbed by the level of expression in an unperturbed system. Changes in expression having a p-value ≤0.05 were considered significant.
# Significance was defined as an FPKM ≥0.5 a log 2(fold change) ≥0.3, and a q-value of ≤0.05.
# APOL1 = experiment: RNA-seq of APOL1 expression in compound-treated primary human hepatocytes; details: for mrna remaining at 10 µM: Homo sapiens, Hepatocyte, 16 h, read-out: APOL mRNA linear fold change
# Method: as §1, §2, §3, §4, §5, §6
# (§10) All pass filter reads from each sample were mapped against the human genome (assembly GRCh38/GCA_000001405.15 “no alt” analysis set merged with hs38d1/GCA_000786075.2) using two pass mapping via STAR version 2.5.3a (alignment parameters alignIntronMin=20; alignIntronMax=1000000; outFilterMismatchNmax=999; outFilterMismatchNoverLmax=0.05; outFilterType=BySJout; outFilterMultimapNmax=20; alignSJoverhangMin=8; alignSJDBoverhangMin=1; alignMatesGapMax=1000000) (Dobin et al., Bioinformatics (2012) 29(1):15-21). Genomic alignments were converted to transcriptome alignments based on reference transcript annotations from the Human GENCODE Gene Set release 24 (Harrow et al., Genome Res. (2012) 22(9): 1760-1774). Using unique and multimapped transcriptomic alignments, gene-level abundance estimates were computed using RSEM version 1.3.0 (Li and Dewey, BMC Bioinformatics (2011) 12:323) in a strand-aware manner, and including confidence interval sampling calculations, to arrive at posterior mean estimates (PME) of abundances (counts and normalized FPKM—fragments per kilobase of exon per million mapped fragments) from the underlying Bayesian model. Standard QC were applied (read integrity, mapping statistics, library complexity, fragment bias) to remove unsatisfactory samples.
# SLC37A4 = experiment: RNA-seq of SLC37A4 expression in compound-treated primary human hepatocytes
# Method: as §1, §2, §3, §4, §5, §6, §10
# UGT1A1 = experiment: RNA-seq of UGT1A1 expression in compound-treated primary human hepatocytes
# How it was run: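 Cryopreserved primary human hepatocytes from three donors were plated in 24-well format, then treated with compound diluted from 1000× stocks in serum-free maintenance medium for about 16–18 h. Poly(A) RNA-seq log2 fold change was computed against vehicle/pan-experiment controls. Significance required FPKM ≥1, log2FC ≥0.5 and q ≤0.05.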
# FN1 = experiment: RNA-seq of FN1 expression in compound-treated primary human hepatocytes; details: perturbed vs unperturbed, significance FPKM ≥1, log 2(fold change) ≥0.5, q-value ≤0.05
# Method: as §1, §2, §3, §4, §5, §6, §10
# ANGPTL3 = experiment: RNA-seq of ANGPTL3 expression in compound-treated primary human hepatocytes; details: additional compounds (Table 13), linear fold change
# How it was run: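 Cryopreserved primary human hepatocytes from three donors, plated at 375,000 cells/well, switched to complete or modified maintenance medium, then dosed with compound (stocks at 1000× final) for about 18 h. Poly(A) mRNA was sequenced directionally, mapped to GRCh38 with STAR, and gene-level abundance (counts, FPKM) estimated with RSEM against GENCODE 24.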
# SERPINC1 mRNA = experiment: Quantitative PCR of SERPINC1 mRNA in primary human hepatocytes (Lonza Hu4282) treated with compounds; details: 72 h treatment, HU4282 primary human hepatocytes, relative to DMSO control (FIG. 7)
# MECP2 mRNA [1] = experiment: MECP2 mRNA in primary human hepatocytes (donor 1, donor 2); details: human hepatocytes donor-2, average fold change
# Method: as §1, §2, §3
# Samples were amplified using Taqman probes from ThermoFisher.
# MECP2 mRNA [2] = experiment: MECP2 mRNA in stellate cells; details: average fold change
# LECT2 = experiment: RNA-seq of LECT2 expression in compound-treated primary human hepatocytes
# Method: as §1, §2, §3, §4, §5, §6, §7, §8, §9
# Significance was defined as an FPKM ≥1, a log 2(fold change) ≥0.5, and a q-value of ≤0.05 for all targets except for CPOX.
# [3] = RNA-seq, primary human hepatocytes, significance FPKM ≥0.5, log 2(fold change) ≥0.3, q-value ≤0.05
molecule,measurement,setting,value
COc1cc(Nc2c(C#N)cnc3cc(OCCCN4CCN(C)CC4)c(OC)cc23)c(Cl)cc1Cl [Bosutinib],CPOX Fold change (Log2),CPOX,0.34 Log2
"CC1OC2(CS1)CN1CCC2CC1 (stereo not shown) [CPD341_Cevimeline, Cevimeline]",mrna remaining at 10 µM,"APOL1; RNAseq, 10 uM dose (Table 20)",65.5%
"CC[C@@H](CO)NC(=O)[C@@H]1C=C2c3cccc4[nH]cc(c34)C[C@H]2N(C)C1 [CPD388_Methylergonovine, Methylergonovine]",mrna remaining at 10 µM,APOL1,64.2%
"Clc1ccc(C(c2ccccc2Cl)C(Cl)Cl)cc1 (stereo not shown) [CPD446_Mitotane, Mitotane]",mrna remaining at 10 µM,"APOL1; RNAseq, 10 uM dose (Table 20)",65.5%
"C[C@]12C=CC(=O)C=C1CC[C@@H]1[C@@H]2[C@@H](O)C[C@@]2(C)[C@H]1CC[C@]2(O)C(=O)CO [CPD447_Prednisolone, Prednisolone]",mrna remaining at 10 µM,"APOL1; RNAseq, 10 uM dose (Table 20)",65.5%
"CC(C)C[C@H](NC(=O)[C@H](Cc1ccccc1)NC(=O)c1cnccn1)B(O)O [CPD569_Bortezomib (PS-341), Bortezomib]",mrna remaining at 10 µM,"APOL1; RNAseq, 10 uM dose (Table 20)",63.7%
[Cl][Co][Cl] [Cobalt chloride],CPOX Fold change (Log2),CPOX,0.49 Log2
same,SLC37A4 Fold Change (Log2),SLC37A4,1.09 Log2
C[C@]12C[C@H](O)[C@H]3[C@@H](CCC4=CC(=O)CC[C@@]43C)[C@@H]1CC[C@@H]2C(=O)CO [Corticosterone],CPOX Fold change (Log2),CPOX; [3],0.36 Log2
same,SLC37A4 Fold Change (Log2),SLC37A4,0.73 Log2
same,UGT1A1 Fold Change (Log2),UGT1A1,0.86 Log2
C[C@@H](Oc1cc(-c2cnn(C3CCNCC3)c2)cnc1N)c1c(Cl)ccc(F)c1Cl [Crizotinib],FN1 Fold Change (Log2),FN1,−1.45 Log2
same,APOL1 Fold Change (Log2),"APOL1; RNA-seq, primary human hepatocytes",−0.56 Log2
same,UGT1A1 Fold Change (Log2),UGT1A1,1.18 Log2
CC(=O)N(O)CCCCCNC(=O)CCC(=O)N(O)CCCCCNC(=O)CCC(=O)N(O)CCCCCN [Deferoxamine mesylate],CPOX Fold change (Log2),CPOX,0.37 Log2
C[C@@H]1C[C@H]2[C@@H]3CCC4=CC(=O)C=C[C@]4(C)[C@@]3(F)[C@@H](O)C[C@]2(C)[C@@]1(O)C(=O)CO [Dexamethasone],SLC37A4 Fold Change (Log2),SLC37A4,0.66 Log2
O=Cc1c2[nH]c3ccccc3c2cc2[nH]c3ccccc3c12 [FICZ],CPOX Fold change (Log2),CPOX,0.44 Log2
same,UGT1A1 Fold Change (Log2),UGT1A1,2.62 Log2
same,ANGPTL3-LINEAR FOLD CHANGE,ANGPTL3,0.3231
O=C1NC(=O)/C(=C/c2ccc3nccc(-c4ccncc4)c3c2)S1 [GSK1059615],APOL mRNA linear fold change,"APOL1; RNAseq, 10 uM dose (Table 20)",0.5105
same,ANGPTL3-LINEAR FOLD CHANGE,ANGPTL3,0.1856
C[N+]1(C)CCC(OC(=O)C(O)(c2ccccc2)C2CCCC2)C1 (stereo not shown) [Glycopyrrolate],CPOX Fold change (Log2),CPOX; [3],0.31 Log2
O=C(O)CC[C@H]1CC[C@@](c2cc(F)ccc2F)(S(=O)(=O)c2ccc(Cl)cc2)CC1 [MK-0752],CPOX Fold change (Log2),CPOX,0.34 Log2
CCc1nn(CCCN2CCN(c3cccc(Cl)c3)CC2)c(=O)n1CCOc1ccccc1 [Nefazodone],CPOX Fold change (Log2),CPOX,0.35 Log2
COc1ccc(-c2cc3c(C)nc(N)nc3n([C@H]3CC[C@H](OCCO)CC3)c2=O)cn1 [PF-04691502],APOL mRNA linear fold change,"APOL1; RNAseq, 10 uM dose (Table 20)",0.5141
same,ANGPTL3-LINEAR FOLD CHANGE,ANGPTL3,0.4506
same,SERPINC1 mRNA change in response to compound,SERPINC1 mRNA,dose dependent upregulation
same,Human hep donor-2 MECP2 (Avg_FC) 1 uM,MECP2 mRNA [1]; compound 1 uM,1.13
same,Human hep donor-2 MECP2 (Avg_FC) 10 uM,MECP2 mRNA [1]; compound 10 uM,1.88
same,Stellate MECP2 (Avg_FC) 1 uM,MECP2 mRNA [2]; compound 1 uM,1.27
same,Stellate MECP2 (Avg_FC) 10 uM,MECP2 mRNA [2]; compound 10 uM,2.78
"COc1cc(Nc2ncc(F)c(Nc3ccc4c(n3)N(COP(=O)(O)O)C(=O)C(C)(C)O4)n2)cc(OC)c1OC [R788 (fostamatinib disodium hexahydrate), fostamatinib disodium hexahydrate]",SLC37A4 Fold Change (Log2),SLC37A4,0.74 Log2
same,UGT1A1 Fold Change (Log2),UGT1A1,0.85 Log2
O=C(NCCCn1ccnc1)c1cc(-c2ccco2)on1 [SKL2001],FN1 Fold Change (Log2),FN1,−0.81 Log2
same,CPOX Fold change (Log2),CPOX,0.45 Log2
same,ANGPTL3-LINEAR FOLD CHANGE,ANGPTL3,0.4323
CN[C@H]1CC[C@@H](c2ccc(Cl)c(Cl)c2)c2ccccc21 [Sertraline HCl],mrna remaining at 10 µM,"APOL1; RNAseq, 10 uM dose (Table 20)",64.6%
same,ANGPTL3-LINEAR FOLD CHANGE,ANGPTL3,0.3816
CCN(CC)CCNC(=O)c1c(C)[nH]c(/C=C2\C(=O)Nc3ccc(F)cc32)c1C [Sunitinib],mrna remaining at 10 µM,"APOL1; RNAseq, 10 uM dose (Table 20)",62%
same,ANGPTL3-LINEAR FOLD CHANGE,ANGPTL3,0.3035
CN1C(=O)c2sccc2N(C)c2nc(Nc3ccc(S(N)(=O)=O)cc3)ncc21 [XMU-MP-1],CPOX Fold change (Log2),CPOX,0.37 Log2
C[C@]12C=CC(=O)C=C1CC[C@@H]1[C@@H]2C(=O)C[C@@]2(C)[C@H]1CC[C@]2(O)C(=O)CO [prednisone],CPOX Fold change (Log2),CPOX,0.44 Log2
same,SLC37A4 Fold Change (Log2),SLC37A4,1.18 Log2
same,LECT2 Fold Change (Log2),LECT2,−0.65 Log2
IGF-1: IGF-1R activator,SLC37A4 Fold Change (Log2),SLC37A4,0.60 Log2
TNF-a,SLC37A4 Fold Change (Log2),SLC37A4,0.64 Log2

# — patent US20210161997A1, “TREATING DISEASES VIA TARGETED MODULATION OF GENE SIGNALING NETWORKS” (Camp4 Therapeutics Corporation, priority 2018, published 2021)
